{
  "source": "patent US20260097049A1",
  "about": "“C[…] AND METHODS OF USE FOR TREATMENT AND PREVENTION OF CANCER” (BlackStone Therapeutics, LLC, priority 2022, published 2026)",
  "key": {"[1]": {"test_system": "A549 Lung Carcinoma Epithelial Cells (CCL-185 from ATCC)", "assay": "Percent viability of lung carcinoma cells", "assay_type": "cell-based", "details": "Homo sapiens, A549, read-out: Percent viability of cells, Mean (%)", "method": "GR-X1=H4CBDV, GR-X2=(R)-H4CBD, GR-X3=(S)-H4CBD, GR-X4=HHC.\nThe IC50 of the hydrogenated cannabivarin, hexahydrocannabidivarin (H4CBDV), (R)-H4CBD, (S)-H4CBD, HHC racemic mixture, and gemcitabine, paclitaxel, and 5-fluorouracil were determined in lung carcinoma cells (A549 Lung Carcinoma Epithelial Cells (CCL-185 from ATCC)) as shown in FIGS. 39-43 and Table 3."}, "[2]": {"test_system": "AsPC-1", "assay": "CellTiterGlo cell viability, AsPC-1 cells", "assay_type": "cell-based", "details": "Homo sapiens, ASPC1, 72 h", "method": "(§1) The IC50 values for (R)-H4CBD, (S)-H4CBD, H4CBDV racemic mixture, and bortezomib were determined. Compound treatment of cells started one day after seeding with a final DMSO concentration of 0.1% and was performed by nanodrop-dispensing using a Tecan Dispenser. 0.1% DMSO (solvent) and Staurosporine (1,0E-05M) served as high control (100% viability) and low control (0% viability), respectively. For the assays, cells were seeded in white cell culture-treated flat and clear bottom multiwell plates and incubated at 37° C. overnight before compounds were added. After incubation for 72 h at 37° C. at 5% or 10% CO2 dependent on the medium, cell plates were equilibrated to room temperature for one hour, CellTiterGlo reagent (Promega) was added and luminescence was measured approximately an hour later using a luminometer.\n(§2) Raw data were converted into percent cell viability relative to the high and low control, which were set to 100% and 0%, respectively. IC50 calculation was performed using GraphPad Prism software with a variable slope sigmoidal response fitting model using 0% viability as bottom constraint and 100% viability as top constraint. IC50 results in PANC-1, MIA-PaCa2, and AsPC-1 cells for (R)-H4CBD, (S)-H4CBD, H4CBDV racemic mixture, and bortezomib are shown in FIGS. 10-12 and Table 2"}, "[3]": {"test_system": "MiaPaCA-2", "assay": "CellTiterGlo cell viability, MiaPaCA-2 cells", "assay_type": "cell-based", "details": "Homo sapiens, MIA PaCa-2, 72 h", "method": "as §1, §2"}, "[4]": {"test_system": "MiaPaca cells xenograft", "assay": "Miapaca cell xenograft study", "assay_type": "in vivo, SCID mice", "method": "Animal housing and environment: Female SCID mice will be housed in individually ventilated cages in a controlled environment (temperature 22±2° C., humidity 30-70%, and 12 h light/12 h dark cycle). Acclimatization of animals: Mice will be acclimated for 2-4 days. For the study, the required number of SCID mice will be allocated and housed separately in the experimental area. Food and water for animals: The mice will have access to commercially available sterile feed pellets and sterile potable water ad libitum. Identification of animals: 4 mice will be housed per individually ventilated cage. Each animal in the cage will be identified by ear punch. These cages will be numbered thus making the animal identification easy. Ethical approvals: All animal experiments will be carried out in accordance with the guidelines of the guide for animal welfare and with the approval of the IACUC WSU. Population per group: 9 mice per group (6 for efficacy and 3 for residual tumor analysis).\nMiapaca cells were xenograft into the mice. 7 days after transplantation, the mice were untreated (administered a vehicle control), administered CCL-104 intravenously (15.4 mg/kg) or orally (31 mg/kg), or administered CCL-106, intravenously (20 mg/kg) or orally (31 mg/kg). At necropsy, tumors were excised for IHC, immunoblotting and RNA isolation for suppression proliferation related signaling molecules."}, "[5]": {"test_system": "PANC-1", "assay": "CellTiterGlo cell viability, PANC-1 cells", "assay_type": "cell-based", "details": "Homo sapiens, 72 h", "method": "as §1, §2"}, "[6]": {"test_system": "PANC-1, HPAF-II, AsPC-1, and MIA-PaCa2", "assay": "Cell killing against various cancer cell lines", "assay_type": "cell-based", "details": "all cancer cells tested", "method": "Various compounds, including (R)-H4CBD and (S)-H4CBD, and H4CBDV racemic mixture, were tested for cell killing against various cancer cell lines, including PANC-1, HPAF-II, AsPC-1, and MIA-PaCa2."}, "[7]": {"assay": "Potential maximum tolerated dosages in mice", "assay_type": "in vivo", "method": "To determine potential maximum tolerated dosages, 3.12, 6.25, 10, and 12.5 mg/kg of CCL-106, for 2, 2, 1, and 1 doses respectively, were administered to mice. […] Mice were administered high doses of CCL-104 and CCL-106."}},
  "data": [
    {"smiles": "CCCc1cc(O)c(C2CC(C)CCC2C(C)C)c(O)c1", "note": "(racemic) [CCL-106, hexahydrocannabidivarin]", "values": [
      {"measurement": "viability at 1.56 µM", "setting": "[1]; agent concentration 1.56 uM", "value": 92.1, "unit": "%"},
      {"measurement": "viability at 3.12 µM", "setting": "[1]; agent concentration 3.12 uM", "value": 95.2, "unit": "%"},
      {"measurement": "viability at 6.25 µM", "setting": "[1]; agent concentration 6.25 uM", "value": 93.4, "unit": "%"},
      {"measurement": "viability at 12.5 µM", "setting": "[1]; agent concentration 12.5 uM", "value": 93.6, "unit": "%"},
      {"measurement": "viability at 25 µM", "setting": "[1]; agent concentration 25 uM", "value": 21.5, "unit": "%"},
      {"measurement": "viability at 50 µM", "setting": "[1]; agent concentration 50 uM", "value": 5.65, "unit": "%"},
      {"measurement": "IC50", "setting": "[2]", "value": 1050, "unit": "nM"},
      {"measurement": "IC50", "setting": "[3]", "value": 530, "unit": "nM"},
      {"measurement": "reduction of final tumor weight (dot graph)", "setting": "[4]; IV 20 mg/kg", "value": 27.0, "unit": "%"},
      {"measurement": "reduction of mean of the final tumor weight (bar graph)", "setting": "[4]; IV 20 mg/kg", "value": 24.2, "unit": "%"},
      {"measurement": "reduction of final tumor weight (dot graph)", "setting": "[4]; PO 31 mg/kg", "value": 50.8, "unit": "%"},
      {"measurement": "reduction of mean of the final tumor weight (bar graph)", "setting": "[4]; PO 31 mg/kg", "value": 50.79, "unit": "%"},
      {"measurement": "tumor size compared to the untreated control", "setting": "[4]; treated intravenously or orally, FIGS. 54-55", "value": "smaller tumors compared to the untreated control"},
      {"measurement": "IC50", "setting": "[5]", "value": 789, "unit": "nM"},
      {"measurement": "cytotoxicity against cancer cells", "setting": "[6]", "value": "shows cytotoxicity against all cancer cells tested"},
      {"measurement": "toxicity observed", "setting": "[7]; 12.5 mg/kg, mouse", "value": "acute toxicity for CCL-106 (strong tremors and weight loss)"},
      {"measurement": "toxicity observed", "setting": "[7]; 15.63 mg/kg dose at each of days 5, 6, and 7, mouse", "value": "seizure like symptoms but recovered more quickly (around 30 minutes)"},
      {"measurement": "toxicity observed", "setting": "[7]; 31.25 mg/kg dose, mouse", "value": "stop moving after about 2 minutes and have seizure like symptoms"},
      {"measurement": "toxicity observed", "setting": "[7]; 39.06 mg/kg dose, mouse", "value": "killed a mouse immediately"},
      {"measurement": "toxicity observed", "setting": "[7]; 46.87 mg/kg dose, mouse", "value": "killed a mouse immediately"},
      {"measurement": "toxicity observed", "setting": "[7]; 3.12, 6.25, and 10 mg/kg dose, mice", "value": "No toxicity was observed"},
      {"measurement": "tail vein toxicity", "setting": "[7]; daily 31.25 mg/kg doses, mouse", "value": "displayed tail vein toxicity on day 2"}
    ]}
  ]
}
